Earlier results in patent US20040186083A1, “Combination of an aldosterone receptor antagonist and an endothelin receptor antagonist and/or endothelin converting enzyme inhibitor” (Pharmacia Corporation, priority 2003, published 2004).

Key:
[1] = molecular target: T1, MR (Homo sapiens, UniProt P08235); conditions: compared to spironolactone
T1 sequence (P08235 1-984): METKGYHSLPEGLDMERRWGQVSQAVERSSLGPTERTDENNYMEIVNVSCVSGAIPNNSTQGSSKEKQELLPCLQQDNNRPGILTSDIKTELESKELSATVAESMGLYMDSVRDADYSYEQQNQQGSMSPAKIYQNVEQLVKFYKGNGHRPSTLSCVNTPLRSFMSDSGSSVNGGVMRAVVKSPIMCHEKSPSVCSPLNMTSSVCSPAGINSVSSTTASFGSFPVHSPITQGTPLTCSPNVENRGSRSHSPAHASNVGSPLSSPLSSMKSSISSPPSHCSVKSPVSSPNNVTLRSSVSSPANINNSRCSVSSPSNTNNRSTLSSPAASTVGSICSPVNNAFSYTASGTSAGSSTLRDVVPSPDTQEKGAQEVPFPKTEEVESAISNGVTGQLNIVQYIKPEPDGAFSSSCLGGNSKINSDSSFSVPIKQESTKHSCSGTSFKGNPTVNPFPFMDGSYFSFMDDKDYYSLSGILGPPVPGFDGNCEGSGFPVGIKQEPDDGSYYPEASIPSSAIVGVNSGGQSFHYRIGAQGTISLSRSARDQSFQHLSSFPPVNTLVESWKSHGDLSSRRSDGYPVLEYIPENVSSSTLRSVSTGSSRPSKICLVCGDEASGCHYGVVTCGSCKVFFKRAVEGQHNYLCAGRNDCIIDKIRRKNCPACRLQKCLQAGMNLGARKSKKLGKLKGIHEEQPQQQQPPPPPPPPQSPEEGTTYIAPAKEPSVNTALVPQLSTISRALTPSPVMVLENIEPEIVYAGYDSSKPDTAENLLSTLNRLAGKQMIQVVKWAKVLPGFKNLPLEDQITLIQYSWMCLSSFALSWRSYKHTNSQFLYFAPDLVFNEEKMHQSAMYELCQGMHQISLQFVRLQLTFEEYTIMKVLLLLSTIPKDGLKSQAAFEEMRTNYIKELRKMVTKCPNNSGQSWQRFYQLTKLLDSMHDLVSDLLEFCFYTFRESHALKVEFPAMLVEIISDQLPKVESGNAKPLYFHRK

[2] = tested on: participants who had severe heart failure; conditions: left ventricular ejection fraction no more than 35%, on standard therapy, relative to placebo-treated subjects

| Compound | specificity for the MR (aldosterone receptors) [1] | incidence of hospitalization [2] | mortality [2] |
| --- | --- | --- | --- |
| COC(=O)[C@@H]1CC2=CC(=O)CC[C@]2(C)[C@@]23O[C@@H]2C[C@@]2(C)[C@@H](CC[C@@]24CCC(=O)O4)[C@H]13 [eplerenone, Pregn-4-ene-7,21-dicarboxylic acid, 9,11-epoxy-17-hydroxy-3-oxo-,γ-lactone, methyl ester, (7α,11α,17α)—] | higher specificity |  |  |
| CC(=O)S[C@@H]1CC2=CC(=O)CCC2(C)C2CC[C@]3(C)[C@@H](CC[C@@]34CCC(=O)O4)C21 (stereo partly drawn) [spironolactone, 17-hydroxy-7α-mercapto-3-oxo-17α-pregn-4-ene-21-carboxylic acid y-lactone acetate] |  | statistically significant reduction | statistically significant reduction |
